Measurements published in article PMC10926604, “Discovery of a novel small molecule as CD47/SIRPα and PD-1/PD-L1 dual inhibitor for cancer immunotherapy” (Cell Communication and Signaling : CCS, 2024).
“Also recorded” adds a separate entry of the source.

How the values were obtained:
MC38 tumor-bearing mice = assay: MC38 tumor model, SMC18 combined with radiotherapy; assay type: in vivo, mouse; details: one 20 Gy dose local IR + SMC18 2 mg/kg i.p. daily for 14 days
Protocol: For the combined radiotherapy treatment model, mice were randomly grouped into four groups when the tumor volume reached approximately 40 ~ 60 mm^3. Mice were treated with a single dose of 20 Gy of local tumor irradiation (Precision X-Ray, XRad320) and daily intraperitoneal injections of SMC18 (2 mg/kg) or equivalent amount of saline for 14 days. Tumor volume was measured every other day using the formula V = 1/2 × a × b × c, where a, b, and c are the tumor's length, width, and height, respectively.

SIRPα = assay: Tyrosine phosphorylation assay of SIRPα, BMDM/MC38 co-culture; assay type: cell-based, mouse; details: 50 μM, BMDMs co-cultured with MC38 cells, 30 min, Western blotting
Protocol: Murine bone marrow-derived macrophages were subjected to induction using murine GM-CSF for 7 days. Subsequently, the induced macrophages (2 × 10^6 cells/well) were co-cultured with MC38 cells (1 × 10^7 cells/well). The co-cultures were treated with PBS (negative control), SMC18 (50 μM), or anti-mouse CD47 (clone miap301, 20 μg/mL, positive control) and incubated at 37℃ for 30 min. Following this, cells were washed and lysed. Finally, cell lysates were collected for immunoprecipitation and Western blotting.
In brief, the protein samples were separated by SDS-PAGE using a 4% stacking gel and an 8 ~ 10% main gel and transferred to a polyvinylidene difluoride (PVDF) membrane. The membrane was blocked with 5% milk at room temperature for 1–2 h and then incubated with anti-SIRPα (dilution 1:1000, AB8120, Abcam), anti-PD-1 (dilution 1:200, ab52587, Abcam) or anti-Phosphotyrosine (dilution 1:1000, 05–321, Millipore) dissolved in primary antibody dilution buffer overnight at 4 °C. Then the membrane was washed and incubated with appropriate HRP-coupled goat anti-rabbit IgG (D110058, Sangon Biotech) and HRP-coupled goat anti-mouse IgG (D110087, Sangon Biotech) for 1–2 h at room temperature. Finally, the membranes were exposed using an enhanced chemiluminescence (ECL) detection kit (P1030, Applygen). Results were analyzed by ImageJ software (NIH, Bethesda, MD, United States).

murine PD-1/PD-L1 = target: T1, murine PD-1/PD-L1 (Mus musculus, UniProt Q9EP73); assay: Cell-based blocking assay, murine PD-1/PD-L1; details: CHO-K1-mPD-1 cells, PD-L1-Fc, flow cytometry; read-out: IC50 for blocking murine PD-1/PD-L1 interaction
T1 construct: purchased Sino Biological 50,010-M02H; host or cells: CHO-K1-mPD-1 cells carry the partner (lentiviral transfection)
T1 sequence (Q9EP73 19-238 limits assumed): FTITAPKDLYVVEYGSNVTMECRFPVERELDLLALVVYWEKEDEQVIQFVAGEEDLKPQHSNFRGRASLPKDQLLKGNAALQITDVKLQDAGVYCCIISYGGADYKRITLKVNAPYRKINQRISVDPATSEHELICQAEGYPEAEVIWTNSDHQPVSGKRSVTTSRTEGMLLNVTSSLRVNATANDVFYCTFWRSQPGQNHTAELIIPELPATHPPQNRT
Protocol: (§1) The CHO-K1 cell line with stable expression of CD47 and PD-1 was constructed previously by our group. SMC18 was serially diluted using PBS 7.2 (containing 1% DMSO) and incubated with 100 ng of SIRPα-Fc protein (human: SIA-H5251, mouse: SIA-M5258, ACRO Biosystems) and 50 ng of PD-L1-Fc protein (human: 10,084-H02H, mouse: 50,010-M02H, Sino Biological) on ice for 30 min. The mixture was then added to the corresponding CHO-K1-CD47 or CHO-K1-PD-1 cells and further incubated on ice for 30 min. Afterward, PE-conjugated anti-human IgG (Fc) antibody (A18272, eBioscience) was added. The mean fluorescence intensity (MFI) of the cells was detected using flow cytometry (BD FACSCalibur) and the blocking efficiency was calculated.

[1] = system: Jurkat cells co-cultured with CHO-K1-hPD-L1 cells; assay: Co-culture assay, IL-2 secretion of Jurkat cells with CHO-K1-hPD-L1 cells; assay type: cell-based, human; details: 50 μM, co-culture with CHO-K1-hPD-L1 cells 48 h
Protocol: Jurkat cells were stimulated with 25 ng/mL of […] (PMA, 16,561–29-8, Sigma) and 1 μg/mL of phytohemag-glutinin (PHA, L8902, Sigma) or 1 μg/mL anti-human CD3 (OKT3, BioGems and 0.5 μg/mL anti-human CD28 (CD28.2, BioGems) for 24 h. Subsequently, they were co-cultured with CHO-K1-hPD-L1 cells at a ratio of 4:1 for 48 h. SMC18 (50 μΜ) and OPBP-1 peptide (100 μM) were added as experimental group and positive control group, respectively. Four hours before the end of the co-culture, protein transport inhibitor (555,029, BD Biosciences) was added. Jurkat cells were collected and stained with anti-human CD45 antibody (HI30, eBioscience) for 30 min. The cells were then fixed and stained with anti-human IL-2-APC (MQ1-17H12, eBioscience) for another 30 min. The fluorescence intensity was analyzed by flow cytometry (BD, FACSCelesta).

hCD112R/hCD112 = hCD112R/hCD112 (Homo sapiens, UniProt Q6DKI7+Q92692); assay: Blockade of other immune checkpoint pathways, CD112R/CD112; assay type: cell-based; details: Fig. S2
Sequence of hCD112R/hCD112 (Q6DKI7 whole entry): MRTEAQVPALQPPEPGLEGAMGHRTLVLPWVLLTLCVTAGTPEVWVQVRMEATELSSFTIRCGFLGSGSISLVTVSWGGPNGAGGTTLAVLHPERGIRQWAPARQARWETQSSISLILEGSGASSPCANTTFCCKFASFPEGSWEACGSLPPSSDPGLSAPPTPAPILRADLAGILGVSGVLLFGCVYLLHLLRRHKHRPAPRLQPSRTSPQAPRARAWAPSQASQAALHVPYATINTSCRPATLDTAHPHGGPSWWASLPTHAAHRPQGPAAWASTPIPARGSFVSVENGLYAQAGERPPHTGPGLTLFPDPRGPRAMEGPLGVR
Sequence of hCD112R/hCD112 (Q92692 32-538): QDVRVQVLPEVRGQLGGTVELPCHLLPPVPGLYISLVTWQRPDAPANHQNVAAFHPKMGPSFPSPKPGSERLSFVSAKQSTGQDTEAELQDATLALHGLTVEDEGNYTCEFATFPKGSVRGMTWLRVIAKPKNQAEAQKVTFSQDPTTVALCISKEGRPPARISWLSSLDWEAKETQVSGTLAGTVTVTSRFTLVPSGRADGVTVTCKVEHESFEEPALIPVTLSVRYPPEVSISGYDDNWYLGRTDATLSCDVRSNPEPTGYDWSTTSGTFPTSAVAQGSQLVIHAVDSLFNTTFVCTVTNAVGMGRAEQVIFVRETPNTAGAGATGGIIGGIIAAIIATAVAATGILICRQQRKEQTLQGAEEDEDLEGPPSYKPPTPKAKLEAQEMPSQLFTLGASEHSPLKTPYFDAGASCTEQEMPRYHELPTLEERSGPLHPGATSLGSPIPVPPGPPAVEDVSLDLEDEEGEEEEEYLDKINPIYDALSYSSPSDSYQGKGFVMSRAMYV

human PD-L1 (hPD-L1) = target: T2, human PD-L1 (hPD-L1) (Homo sapiens, UniProt Q9NZQ7); assay: MST binding assay, human PD-L1; details: PD-L1-IgV-His, read-out: dissociation constant (KD) for human PD-L1
T2 construct: PD-L1-IgV-His (human: 10,084-H08H, mouse: 50,010-M08H, Sino Biological); His; purchased Sino Biological 10,084-H08H
T2 sequence (Q9NZQ7 19-127 limits assumed): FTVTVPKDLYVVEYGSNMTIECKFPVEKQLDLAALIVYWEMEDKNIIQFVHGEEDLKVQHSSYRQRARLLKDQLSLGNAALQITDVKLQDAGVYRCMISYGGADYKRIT
Protocol: SIPRα-IgV-His (human: SIA-H5225, mouse: SIA-M52H4, ACRO Biosystems) and PD-L1-IgV-His (human: 10,084-H08H, mouse: 50,010-M08H, Sino Biological) proteins were labeled with Red-NHS647 dye (NT-MO-L001, NanoTemper) for subsequent experiments. SMC18 (C385-0664, ChemDiv) was serially diluted using PBST (from 0.0191 μM to 200 μM) and mixed with the labeled proteins. The samples were then aspirated using standard capillaries and assayed by MST instrument (Monolith NT.115, NanoTemper), and the results were analyzed using the analytical software Monolith NT.115 system to calculate the dissociation constant (KD) values.

murine CD47/SIRPα = target: T3, murine CD47/SIRPα (Mus musculus, UniProt P97797); assay: Cell-based blocking assay, murine CD47/SIRPα; details: CHO-K1-mCD47 cells, SIRPα-Fc, flow cytometry; read-out: IC50 for blocking murine CD47/SIRPα interaction
T3 construct: purchased ACRO Biosystems SIA-M5258; host or cells: CHO-K1-mCD47 cells carry the partner (lentiviral transfection)
T3 sequence (P97797 32-373 limits assumed): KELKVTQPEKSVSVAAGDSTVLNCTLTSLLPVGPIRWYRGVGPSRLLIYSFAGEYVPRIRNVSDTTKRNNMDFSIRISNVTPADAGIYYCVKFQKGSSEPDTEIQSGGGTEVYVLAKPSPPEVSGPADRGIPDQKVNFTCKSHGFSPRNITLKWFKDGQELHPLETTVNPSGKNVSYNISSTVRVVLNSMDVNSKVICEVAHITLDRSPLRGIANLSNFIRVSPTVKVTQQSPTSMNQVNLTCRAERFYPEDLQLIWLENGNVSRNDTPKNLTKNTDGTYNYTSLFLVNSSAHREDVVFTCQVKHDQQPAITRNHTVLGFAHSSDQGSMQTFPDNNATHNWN
Protocol: as §1

Cc1cc(C)cc(NS(=O)(=O)c2ccc3[nH]cc(C(=O)NCCc4ccccc4)c(=O)c3c2)c1 [SMC18]
body weight of the mice, combination with radiotherapy (MC38 tumor-bearing mice): without affecting | tumor growth, combination with radiotherapy (MC38 tumor-bearing mice): significantly inhibited | tyrosine phosphorylation levels of SIRPα (SIRPα): significantly suppressed | IC50 (murine PD-1/PD-L1): 71.3 ± 20 µM | ability of Jurkat cells to secrete IL-2 [1]: effectively restored | inhibitory effect on hCD112R/hCD112 pathway (hCD112R/hCD112): no blocking effect; also recorded: did not impede | Kd (human PD-L1 (hPD-L1)): 0.029 ± 0.03 µM | IC50 (murine CD47/SIRPα): 58.9 ± 3.2 µM
